≈ marks a conversion by molar mass, not a printed value. Counter-ions that a name gives are not always drawn. Like-named read-outs stand apart in the source and are kept apart here.
Assays:
[1] = Kinetic Solubility Analysis (CLND); type: physicochemical; conditions: 26 °C, kinetic from dmso stock
Protocol: Kinetic Solubility Analysis (CLND) Buffer Preparation:
0.1N HCl: Hydrochloric acid, 0.1N standardized solution.
1×PBS, 7.4: Phosphate Buffered Saline solution 10×, PBS 50 mL was added to approximately 450 mL HPLC grade H2O. The volume of the solution was then adjusted to 500 mL for a total dilution factor of 1:10 and a final PBS concentration of IX.
Kinetic Solubility from DMSO Stocks:
The final DMSO concentration is 1.0% and maximum theoretical compound concentration is 100 μM (assuming stock concentration of 10 mM). The filter plate was sealed. […] The collection plate was sealed for analysis. Filtrates were injected into the nitrogen detector for quantification.
The equimolar nitrogen response of the detector was calibrated using standards which spanned the dynamic range of the instrument from […] nitrogen. The filtrates were quantified with respect to this calibration curve. The calculated solubility values were corrected for background nitrogen present in the DMSO and the media used to prepare the samples.

in vivo = conditions: beagle, dog, po
Protocol: Pharmacokinetic Profiling Dog PK
(§6) Compound 11 was formulated in a suspension formulation (1% HPMC and 0.05% Tween 20 in DI Water) and administered orally at 10 mg-eq/kg to a dosing group consisting of three non-naïve male beagle dogs. At dosing, the animals weighed between 9 to 12 kg. The animals were fasted overnight prior to dose administration and up to four hours after dosing. Serial venous blood samples (approximately 1.0 mL each) were obtained at pre-dose, 0.25, 0.50, 1, 2, 4, 6, 8, 12, and 24 hours post-dose. The blood samples were collected into Vacutainer™ tubes containing EDTA-K2 as the anti-coagulant and were immediately placed on wet ice pending centrifugation for plasma. An LC/MS/MS method was used to measure the concentration of compound 11 and compound D in plasma. […] In a second experiment, compound D was dosed orally as a suspension using the same formulation and dose level.

[2] = Liver microsomal stability (human); type: in vitro ADME; conditions: human liver microsomes 0.5 mg/mL, 1 μM compound, NADPH-regenerating system, 37° C.
Protocol: (§1) Liver Microsomal Stability Protocol
(§2) Test compounds and one control compound (verapamil) were tested in 3 different species in duplicate sets.
(§3) Test compound concentration: 1 μM; Protein concentration: 0.5 mg/mL (for rat and human liver microsomes); Cofactor: NADPH-Regenerating system (NRS) solution. Time-points: 2, 12, 25, 45, and 65 minutes.
(§4) Reaction composition (in each incubation well) contains:
(§5) At an incubation temperature of 37° C., the reaction was started with addition of NADPH Regeneration System, at each time point, 25 μL of the reaction mixture was removed and added to a plate with 225 μL quenching solution (50% MeOH, 25% ACN, 25% H2O, and 200 nM labetalol as internal standard). After plates were vortexed, they were centrifuged for 30 minutes to remove proteins. About 100 μL supernatant was removed to a new plate and diluted with 150 μL water. About 20 μL of the mixture was injected into an LC/MS/MS system to monitor the compound's response. In vitro measured t1/2 was used to calculate Clint values.

[3] = Liver microsomal stability (rat); type: in vitro ADME; conditions: rat liver microsomes 0.5 mg/mL, 1 μM compound, NADPH-regenerating system, 37° C.
Protocol: as §1, §2, §3, §4, §5

[4] = tested on: HIV-1 (IIIB) in MT-4 cells; test: MT-4 HIV Assay; type: cell-based; conditions: Human immunodeficiency virus 1, MT4, 120 h; HIV-1 (IIIB) replication in MT-4 cells, 5 days incubation, Cell Titer Glo; read-out: EC50
Protocol: Compounds were tested in a high-throughput 384-well assay format for their ability to inhibit the replication of HIV-1 (IIIB) in MT-4 cells. Compounds were serially diluted (1:3) in DMSO on 384-well polypropylene plates and further diluted 200-fold into complete RPMI media (10% FBS, 1% P/S) using the Biotek Micro Flow and Agilent ECHO acoustic dispenser. Each plate contained up to 8 test compounds, with negative (No Drug Control) and 5 μM AZT positive controls. MT-4 cells were pre-infected with 10 μL of either RPMI (mock-infected) or a fresh 1:250 dilution of an HIV-1 (IIIB) concentrated virus stock. Infected and uninfected MT-4 cells were further diluted in complete RPMI media and added to each plate using a Micro Flow dispenser. After 5 days incubation in a humidified and temperature controlled incubator (37° C.), Cell Titer Glo (Promega) was added to the assay plates to quantify the amount of luciferase. EC50 values were defined as the compound concentration that causes a 50% decrease in luminescence signal, and were calculated using a sigmoidal dose-response model to generate curve fits.

[5] = male, beagle, dog, in vivo
Protocol: Pharmacokinetic Profiling Dog PK
as §6

[6] = 0.1N HCl, pH 1, simulated gastric fluid, read-out: Solubility, HCl, pH 1.0, RT
[7] = PBS, pH 7.4, aqueous buffer, read-out: Solubility, PBS, pH 7.4, RT

Row | SMILES | solubility at 24 h [1, 6] | solubility at 24 h [1, 7] | bioavailability (in vivo) | Human Pred Cl. (L/H/kg) [2] | Rat. Pred. Cl. (L/H/kg) [3] | EC50 [4] | bioavailability of compound D [5]
1 | COC(=O)N[C@H](C(=O)N[C@@H](Cc1ccc(C#Cc2cnc(N3CC4CCC(C3)N4C3COC3)nc2)cc1)[C@@H](O)CN(Cc1c(F)cc(-c2ccn(C(F)F)n2)cc1F)NC(=O)[C@@H](NC(=O)OC)C(C)(C)C(F)(F)F)C(C)(C)C(F)(F)F [Compound D, methyl ((5S,8S,9S,14S)-11-(4-(1-(difluoromethyl)-1H-pyrazol-3-yl)-2,6-difluorobenzyl)-16,16,16-trifluoro-9-hydroxy-15,15-dimethyl-8-(4-((2-(8-(oxetan-3-yl)-3,8-diazabicyclo[3.2.1]octan-3-yl)pyrimidin-5-yl)ethynyl)benzyl)-3,6,13-trioxo-5-(1,1,1-trifluoro-2-methylpropan-2-yl)-2-oxa-4,7,11,12-tetraazahexadecan-14-yl)carbamate, reference compound] | 19.5 µM (≈ 22.5 µg/mL) | < 1 µM | 2.6 ± 1.1% |  |  |  | 
2 | COC(=O)N[C@H](C(=O)N[C@@H](Cc1ccc(C#Cc2cnc(N3CC4CCC(C3)N4C3COC3)nc2)cc1)[C@H](CN(Cc1c(F)cc(-c2ccn(C(F)F)n2)cc1F)NC(=O)[C@@H](NC(=O)OC)C(C)(C)C(F)(F)F)OC(=O)c1cccnc1)C(C)(C)C(F)(F)F [Example 5, (5S,10S,11S,14S)-8-(4-(1-(difluoromethyl)-1H-pyrazol-3-yl)-2,6-difluorobenzyl)-11-(4-((2-(8-(oxetan-3-yl)-3,8-diazabicyclo[3.2.1]octan-3-yl)pyrimidin-5-yl)ethynyl)benzyl)-3,6,13,16-tetraoxo-5,14-bis(1,1,1-trifluoro-2-methylpropan-2-yl)-2,17-dioxa-4,7,8,12,15-pentaazaoctadecan-10-yl nicotinate] | 89.2 µM (≈ 112 µg/mL) | < 1 µM |  | 0.28 L/H/kg | 0.58 L/H/kg | 1140 nM | 
3 | COC(=O)N[C@H](C(=O)N[C@@H](Cc1ccc(C#Cc2cnc(N3CC4CCC(C3)N4C3COC3)nc2)cc1)[C@H](CN(Cc1c(F)cc(-c2ccn(C(F)F)n2)cc1F)NC(=O)[C@@H](NC(=O)OC)C(C)(C)C(F)(F)F)OC(=O)CCCN1CCOCC1)C(C)(C)C(F)(F)F [Example 2, (5S,10S,11S,14S)-8-(4-(1-(difluoromethyl)-1H-pyrazol-3-yl)-2,6-difluorobenzyl)-11-(4-((2-(8-(oxetan-3-yl)-3,8-diazabicyclo[3.2.1]octan-3-yl)pyrimidin-5-yl)ethynyl)benzyl)-3,6,13,16-tetraoxo-5,14-bis(1,1,1-trifluoro-2-methylpropan-2-yl)-2,17-dioxa-4,7,8,12,15-pentaazaoctadecan-10-yl 4-morpholinobutanoate] | 81 µM (≈ 106 µg/mL) | < 1 µM |  | 0.53 L/H/kg | 0.84 L/H/kg | 56.6 nM | 
4 | COC(=O)N[C@H](C(=O)N[C@@H](Cc1ccc(C#Cc2cnc(N3CC4CCC(C3)N4C3COC3)nc2)cc1)[C@H](CN(Cc1c(F)cc(-c2ccn(C(F)F)n2)cc1F)NC(=O)[C@@H](NC(=O)OC)C(C)(C)C(F)(F)F)OP(=O)(O)O)C(C)(C)C(F)(F)F [Example 12, methyl ((5S,10S,11S,14S)-8-(4-(1-(difluoromethyl)-1H-pyrazol-3-yl)-2,6-difluorobenzyl)-16,16,16-trifluoro-15,15-dimethyl-11-(4-((2-(8-(oxetan-3-yl)-3,8-diazabicyclo[3.2.1]octan-3-yl)pyrimidin-5-yl)ethynyl)benzyl)-3,6,13-trioxo-10-(phosphonooxy)-5-(1,1,1-trifluoro-2-methylpropan-2-yl)-2-oxa-4,7,8,12-tetraazahexadecan-14-yl)carbamate] | 13.1 µM (≈ 16.2 µg/mL) | 84.6 µM (≈ 105 µg/mL) |  | 0.47 L/H/kg | 0.91 L/H/kg |  | 
5 | COC(=O)N[C@H](C(=O)N[C@@H](Cc1ccc(C#Cc2cnc(N3CC4CCC(C3)N4C3COC3)nc2)cc1)[C@H](CN(Cc1c(F)cc(-c2ccn(C(F)F)n2)cc1F)NC(=O)[C@@H](NC(=O)OC)C(C)(C)C(F)(F)F)OC(=O)OCOP(=O)(O)O)C(C)(C)C(F)(F)F [Example 11, methyl ((5S,10S,11S,14S)-8-(4-(1-(difluoromethyl)-1H-pyrazol-3-yl)-2,6-difluorobenzyl)-16,16,16-trifluoro-15,15-dimethyl-11-(4-((2-(8-(oxetan-3-yl)-3,8-diazabicyclo[3.2.1]octan-3-yl)pyrimidin-5-yl)ethynyl)benzyl)-3,6,13-trioxo-10-((((phosphonooxy)methoxy)carbonyl)oxy)-5-(1,1,1-trifluoro-2-methylpropan-2-yl)-2-oxa-4,7,8,12-tetraazahexadecan-14-yl)carbamate] |  |  |  |  |  |  | 5.5±2.6%
6 | COC(=O)N[C@H](C(=O)N[C@@H](Cc1ccc(C#Cc2cnc(N3CC4CCC(C3)N4C3COC3)nc2)cc1)[C@H](CN(Cc1c(F)cc(-c2ccn(C(F)F)n2)cc1F)NC(=O)[C@@H](NC(=O)OC)C(C)(C)C(F)(F)F)OC(=O)c1ccccn1)C(C)(C)C(F)(F)F [Example 6, (5S,10S,11S,14S)-8-(4-(1-(difluoromethyl)-1H-pyrazol-3-yl)-2,6-difluorobenzyl)-11-(4-((2-(8-(oxetan-3-yl)-3,8-diazabicyclo[3.2.1]octan-3-yl)pyrimidin-5-yl)ethynyl)benzyl)-3,6,13,16-tetraoxo-5,14-bis(1,1,1-trifluoro-2-methylpropan-2-yl)-2,17-dioxa-4,7,8,12,15-pentaazaoctadecan-10-yl picolinate] | 38.5 µM (≈ 48.6 µg/mL) | < 1 µM |  | 0.29 L/H/kg | <0.4 L/H/kg | 278 nM | 
7 | COC(=O)N[C@H](C(=O)N[C@@H](Cc1ccc(C#Cc2cnc(N3CC4CCC(C3)N4C3COC3)nc2)cc1)[C@H](CN(Cc1c(F)cc(-c2ccn(C(F)F)n2)cc1F)NC(=O)[C@@H](NC(=O)OC)C(C)(C)C(F)(F)F)OC=O)C(C)(C)C(F)(F)F [Example 1, (5S,10S,11S,14S)-8-(4-(1-(difluoromethyl)-1H-pyrazol-3-yl)-2,6-difluorobenzyl)-11-(4-((2-(8-(oxetan-3-yl)-3,8-diazabicyclo[3.2.1]octan-3-yl)pyrimidin-5-yl)ethynyl)benzyl)-3,6,13,16-tetraoxo-5,14-bis(1,1,1-trifluoro-2-methylpropan-2-yl)-2,17-dioxa-4,7,8,12,15-pentaazaoctadecan-10-yl formate] | 20 µM | < 1 µM |  | 0.37 L/H/kg | <0.4 L/H/kg | 4.62 nM | 

From US11052087B2, “Anti-HIV compounds” (priority 2018, dated 2021)
